According to patent publication US10724099B2, “Multiplex methods to assay mixed cell populations simultaneously” (The Broad Institute, Inc., priority 2012, dated 2020):

Experiments:
PIK3CA = biological target: T1, PIK3CA (Homo sapiens, UniProt P42336); experiment: DiscoveRx KinomeScan binding
T1 construct: purchased DiscoveRx scanEDGE panel

102 barcoded cell lines = experiment: PRISM, 102 barcoded cell lines in pools; format: cell-based; conditions: 102 cell lines
Description: PRISM was used to identify novel anticancer compounds, using a set of 102 barcoded cell lines including 90 non-small cell lung adenocarcinoma lines (and 2 duplicate lines with different barcode labels) and 10 remaining cell lines representing other tissues of origins.
Using the AUC for each cell line's response to BRD-7880, a PRISM “activity profile” was created to query whether the sensitivity pattern of BRD-7880 across the cell line panel was related to any of the tool compounds assayed in parallel. […] Thus it was hypothesized that BRD-7880 was functioning as an inhibitor of aurora kinases.

ABL1---nonphosphorylated = biological target: T2, ABL1---nonphosphorylated (Homo sapiens, UniProt P00519); experiment: DiscoveRx KinomeScan binding; conditions: Entrez ABL1
T2 construct: purchased DiscoveRx (KINOMEscan scanEDGE panel)
T2 sequence (P00519 whole entry): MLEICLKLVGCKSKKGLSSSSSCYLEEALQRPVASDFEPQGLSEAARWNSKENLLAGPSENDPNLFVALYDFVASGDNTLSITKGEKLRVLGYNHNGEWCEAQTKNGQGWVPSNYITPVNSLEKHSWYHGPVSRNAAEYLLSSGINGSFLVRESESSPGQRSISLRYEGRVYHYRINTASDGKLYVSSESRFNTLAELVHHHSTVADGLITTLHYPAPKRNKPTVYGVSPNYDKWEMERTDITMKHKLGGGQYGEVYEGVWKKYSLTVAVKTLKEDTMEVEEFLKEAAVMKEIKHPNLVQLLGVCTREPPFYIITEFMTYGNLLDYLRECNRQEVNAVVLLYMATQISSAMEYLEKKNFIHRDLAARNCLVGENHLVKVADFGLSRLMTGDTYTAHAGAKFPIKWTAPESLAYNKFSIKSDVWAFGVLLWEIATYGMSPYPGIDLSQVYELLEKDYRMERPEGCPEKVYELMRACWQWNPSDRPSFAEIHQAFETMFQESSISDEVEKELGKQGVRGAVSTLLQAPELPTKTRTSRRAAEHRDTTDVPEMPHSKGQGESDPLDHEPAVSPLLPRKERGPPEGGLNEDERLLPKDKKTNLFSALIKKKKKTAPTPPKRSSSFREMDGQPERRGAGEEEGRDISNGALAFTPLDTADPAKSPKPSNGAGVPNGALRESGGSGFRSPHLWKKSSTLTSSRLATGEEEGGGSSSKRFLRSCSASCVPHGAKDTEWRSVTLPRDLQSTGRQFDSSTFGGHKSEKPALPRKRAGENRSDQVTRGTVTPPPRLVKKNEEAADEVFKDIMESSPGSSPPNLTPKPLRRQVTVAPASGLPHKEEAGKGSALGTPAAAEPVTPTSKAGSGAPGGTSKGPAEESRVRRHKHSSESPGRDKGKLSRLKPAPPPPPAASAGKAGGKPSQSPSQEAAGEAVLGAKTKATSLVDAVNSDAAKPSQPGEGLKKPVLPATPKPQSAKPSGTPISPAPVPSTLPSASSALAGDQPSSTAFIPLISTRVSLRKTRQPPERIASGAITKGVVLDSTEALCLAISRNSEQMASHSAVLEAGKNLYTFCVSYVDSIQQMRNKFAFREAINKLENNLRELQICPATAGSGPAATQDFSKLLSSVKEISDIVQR

BMPR2 = biological target: T3, BMPR2 (Homo sapiens, UniProt Q13873); experiment: DiscoveRx KinomeScan binding
T3 construct: purchased DiscoveRx (KINOMEscan scanEDGE panel)

p38---beta = biological target: T4, p38---beta (Homo sapiens, UniProt Q15759); experiment: DiscoveRx KinomeScan binding; conditions: Entrez MAPK11
T4 construct: purchased DiscoveRx scanEDGE panel (KinomeScan)

SRPK3 = biological target: T5, SRPK3 (Homo sapiens, UniProt Q9UPE1); experiment: DiscoveRx KinomeScan binding
T5 construct: purchased DiscoveRx scanEDGE panel

IGF1R = biological target: T6, IGF1R (Homo sapiens, UniProt P08069); experiment: DiscoveRx KinomeScan binding
T6 construct: purchased DiscoveRx scanEDGE panel

IKK---alpha = biological target: T7, IKK---alpha (Homo sapiens, UniProt O15111); experiment: DiscoveRx KinomeScan binding; conditions: Entrez CHUK
T7 construct: purchased DiscoveRx scanEDGE panel

AKT2 = biological target: T8, AKT2 (Homo sapiens, UniProt P31751); experiment: DiscoveRx KinomeScan binding
T8 construct: purchased DiscoveRx (KINOMEscan scanEDGE panel)

RET = biological target: T9, RET (Homo sapiens, UniProt P07949); experiment: DiscoveRx KinomeScan binding
T9 construct: purchased DiscoveRx scanEDGE panel

AKT1 = biological target: T10, AKT1 (Homo sapiens, UniProt P31749); experiment: DiscoveRx KinomeScan binding
T10 construct: purchased DiscoveRx (KINOMEscan scanEDGE panel)
T10 sequence (P31749 whole entry): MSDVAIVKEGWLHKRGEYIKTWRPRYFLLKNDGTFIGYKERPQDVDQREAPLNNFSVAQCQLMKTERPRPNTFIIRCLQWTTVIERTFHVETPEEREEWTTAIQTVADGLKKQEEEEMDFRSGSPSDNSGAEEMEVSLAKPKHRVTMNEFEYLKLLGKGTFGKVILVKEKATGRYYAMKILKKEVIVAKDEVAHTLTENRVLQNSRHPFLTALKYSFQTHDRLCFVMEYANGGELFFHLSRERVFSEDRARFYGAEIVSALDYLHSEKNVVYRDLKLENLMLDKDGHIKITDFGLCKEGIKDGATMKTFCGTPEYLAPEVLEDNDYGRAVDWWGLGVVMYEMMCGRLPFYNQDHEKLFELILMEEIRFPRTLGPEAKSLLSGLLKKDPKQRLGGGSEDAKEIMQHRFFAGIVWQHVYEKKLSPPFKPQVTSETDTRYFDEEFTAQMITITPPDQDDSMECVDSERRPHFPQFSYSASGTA

KIT(V559D,T670I) = biological target: T11, KIT(V559D,T670I) (Homo sapiens, UniProt P10721, T670I/V559D); experiment: DiscoveRx KinomeScan binding
T11 construct: purchased DiscoveRx scanEDGE panel (KinomeScan)

SNARK = biological target: T12, SNARK (Homo sapiens, UniProt Q9H093); experiment: DiscoveRx KinomeScan binding; conditions: Entrez NUAK2
T12 construct: purchased DiscoveRx scanEDGE panel

YANK3 = biological target: T13, YANK3 (Homo sapiens, UniProt Q86UX6); experiment: DiscoveRx KinomeScan binding; conditions: Entrez STK32C
T13 construct: purchased DiscoveRx (KinomeScan scanEDGE panel service)

MEK2 = biological target: T14, MEK2 (Homo sapiens, UniProt P36507); experiment: DiscoveRx KinomeScan binding; conditions: Entrez MAP2K2
T14 construct: purchased DiscoveRx scanEDGE panel (KinomeScan)

LKB1 = biological target: T15, LKB1 (Homo sapiens, UniProt Q15831); experiment: DiscoveRx KinomeScan binding; conditions: Entrez STK11
T15 construct: purchased DiscoveRx scanEDGE panel (KinomeScan)

ADCK3 = biological target: T16, ADCK3 (Homo sapiens, UniProt Q8NI60); experiment: DiscoveRx KinomeScan binding; conditions: Entrez CABC1
T16 construct: purchased DiscoveRx (KINOMEscan scanEDGE panel)

JNK3 = biological target: T17, JNK3 (Homo sapiens, UniProt P53779); experiment: DiscoveRx KinomeScan binding; conditions: Entrez MAPK10
T17 construct: purchased DiscoveRx scanEDGE panel (KinomeScan)

p38---alpha = biological target: T18, p38---alpha (Homo sapiens, UniProt Q16539); experiment: DiscoveRx KinomeScan binding; conditions: Entrez MAPK14
T18 construct: purchased DiscoveRx scanEDGE panel (KinomeScan)

BRAF = biological target: T19, BRAF (Homo sapiens, UniProt P15056); experiment: DiscoveRx KinomeScan binding
T19 construct: purchased DiscoveRx (KINOMEscan scanEDGE panel)

EGFR = biological target: T20, EGFR (Homo sapiens, UniProt P00533); experiment: DiscoveRx KinomeScan binding
T20 construct: purchased DiscoveRx scanEDGE panel

PLK4 = biological target: T21, PLK4 (Homo sapiens, UniProt O00444); experiment: DiscoveRx KinomeScan binding
T21 construct: purchased DiscoveRx scanEDGE panel
T21 sequence (O00444 whole entry): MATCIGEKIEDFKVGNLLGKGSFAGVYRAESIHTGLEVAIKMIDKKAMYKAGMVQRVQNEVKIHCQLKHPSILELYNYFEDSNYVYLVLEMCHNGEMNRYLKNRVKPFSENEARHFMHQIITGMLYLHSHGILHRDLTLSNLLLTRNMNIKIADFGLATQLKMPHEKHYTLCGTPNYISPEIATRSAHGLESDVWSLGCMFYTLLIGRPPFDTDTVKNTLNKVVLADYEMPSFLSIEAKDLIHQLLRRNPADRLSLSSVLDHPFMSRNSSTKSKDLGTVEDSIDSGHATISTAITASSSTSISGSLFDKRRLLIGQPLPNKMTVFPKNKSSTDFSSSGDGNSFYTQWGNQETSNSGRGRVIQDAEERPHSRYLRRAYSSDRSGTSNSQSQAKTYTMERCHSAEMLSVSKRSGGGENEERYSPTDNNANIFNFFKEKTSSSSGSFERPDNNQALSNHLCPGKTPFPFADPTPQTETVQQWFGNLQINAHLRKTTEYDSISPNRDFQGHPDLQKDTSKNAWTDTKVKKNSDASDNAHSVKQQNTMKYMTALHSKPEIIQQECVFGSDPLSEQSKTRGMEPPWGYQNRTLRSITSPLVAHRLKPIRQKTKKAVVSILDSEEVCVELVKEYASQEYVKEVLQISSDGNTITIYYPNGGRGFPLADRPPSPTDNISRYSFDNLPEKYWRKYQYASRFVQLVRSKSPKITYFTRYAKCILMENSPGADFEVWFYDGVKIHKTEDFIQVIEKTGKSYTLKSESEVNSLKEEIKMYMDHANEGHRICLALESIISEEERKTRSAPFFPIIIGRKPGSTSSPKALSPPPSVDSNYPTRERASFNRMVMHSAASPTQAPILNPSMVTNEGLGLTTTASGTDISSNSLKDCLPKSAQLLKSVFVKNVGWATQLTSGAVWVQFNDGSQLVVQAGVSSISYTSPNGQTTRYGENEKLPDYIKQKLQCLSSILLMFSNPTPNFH

HCT-116 cells = experiment: Western blot phosphoserine 10-histone H3; format: cell-based; conditions: 10 μM
Procedure: Finally, HCT-116 cells were treated with 10 μM of DMSO, barasertib, GSK1070916, MLN8054, BRD-7880, or tozasertib. Cells lysates were probed on Western blot using antibodies (diluted 1:1000) to histone H3 (Abcam cat. no. 24834), phosphoserine 10-histone H3 (Cell Signaling Technology cat no. 3377SS), aurora kinase B (Millipore cat. no. 04-1036), or beta-actin (Santa Cruz Biotechnology cat. no. sc-47778) and detected using a LI-COR Odyssey analyzer.

JNK1 = biological target: T22, JNK1 (Homo sapiens, UniProt P45983); experiment: DiscoveRx KinomeScan binding; conditions: Entrez MAPK8
T22 construct: purchased DiscoveRx scanEDGE panel

IKK---beta = biological target: T23, IKK---beta (Homo sapiens, UniProt O14920); experiment: DiscoveRx KinomeScan binding; conditions: Entrez IKBKB
T23 construct: purchased DiscoveRx scanEDGE panel

PIK3C2B = biological target: T24, PIK3C2B (Homo sapiens, UniProt O00750); experiment: DiscoveRx KinomeScan binding
T24 construct: purchased DiscoveRx scanEDGE panel (KinomeScan)
T24 sequence (O00750 whole entry): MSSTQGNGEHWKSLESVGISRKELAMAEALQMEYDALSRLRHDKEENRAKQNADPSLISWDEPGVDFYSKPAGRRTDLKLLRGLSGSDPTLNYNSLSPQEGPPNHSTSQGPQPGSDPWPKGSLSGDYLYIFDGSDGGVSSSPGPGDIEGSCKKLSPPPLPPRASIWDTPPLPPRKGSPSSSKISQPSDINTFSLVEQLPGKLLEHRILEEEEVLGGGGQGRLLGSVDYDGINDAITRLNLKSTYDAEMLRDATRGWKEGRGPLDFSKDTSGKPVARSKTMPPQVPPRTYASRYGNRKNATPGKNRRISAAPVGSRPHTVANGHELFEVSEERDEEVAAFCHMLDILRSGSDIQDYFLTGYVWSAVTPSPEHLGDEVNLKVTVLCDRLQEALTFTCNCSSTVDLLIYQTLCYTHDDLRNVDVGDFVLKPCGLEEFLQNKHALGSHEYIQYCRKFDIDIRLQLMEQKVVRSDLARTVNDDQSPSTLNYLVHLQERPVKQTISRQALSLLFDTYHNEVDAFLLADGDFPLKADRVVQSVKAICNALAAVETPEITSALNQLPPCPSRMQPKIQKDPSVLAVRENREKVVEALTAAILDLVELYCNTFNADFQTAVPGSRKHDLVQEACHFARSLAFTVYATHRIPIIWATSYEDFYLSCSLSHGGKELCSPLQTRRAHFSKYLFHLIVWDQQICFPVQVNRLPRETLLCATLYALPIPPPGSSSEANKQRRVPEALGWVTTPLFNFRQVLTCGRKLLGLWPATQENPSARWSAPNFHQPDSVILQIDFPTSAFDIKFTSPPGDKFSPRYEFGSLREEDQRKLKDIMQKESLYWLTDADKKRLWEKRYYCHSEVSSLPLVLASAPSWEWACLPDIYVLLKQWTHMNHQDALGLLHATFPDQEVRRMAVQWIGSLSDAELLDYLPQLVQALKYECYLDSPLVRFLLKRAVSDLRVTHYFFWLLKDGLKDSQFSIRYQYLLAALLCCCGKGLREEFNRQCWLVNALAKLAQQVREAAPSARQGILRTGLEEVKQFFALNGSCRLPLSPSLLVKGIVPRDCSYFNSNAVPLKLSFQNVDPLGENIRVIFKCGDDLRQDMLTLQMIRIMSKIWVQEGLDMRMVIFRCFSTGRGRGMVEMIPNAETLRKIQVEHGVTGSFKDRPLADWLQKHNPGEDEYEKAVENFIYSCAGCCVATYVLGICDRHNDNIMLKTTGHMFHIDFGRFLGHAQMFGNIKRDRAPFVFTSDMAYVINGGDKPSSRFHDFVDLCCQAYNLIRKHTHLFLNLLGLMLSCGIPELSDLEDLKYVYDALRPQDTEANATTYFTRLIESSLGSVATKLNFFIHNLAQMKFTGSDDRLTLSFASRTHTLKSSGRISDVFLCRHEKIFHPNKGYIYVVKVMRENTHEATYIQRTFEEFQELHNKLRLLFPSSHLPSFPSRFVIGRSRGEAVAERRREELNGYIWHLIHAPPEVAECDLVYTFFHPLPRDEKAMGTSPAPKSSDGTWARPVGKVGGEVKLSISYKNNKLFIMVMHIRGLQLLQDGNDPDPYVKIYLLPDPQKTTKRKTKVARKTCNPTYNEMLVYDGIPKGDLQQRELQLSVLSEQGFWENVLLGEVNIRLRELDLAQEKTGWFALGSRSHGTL

PIM2 = biological target: T25, PIM2 (Homo sapiens, UniProt Q9P1W9); experiment: DiscoveRx KinomeScan binding
T25 construct: purchased DiscoveRx scanEDGE panel
T25 sequence (Q9P1W9 whole entry): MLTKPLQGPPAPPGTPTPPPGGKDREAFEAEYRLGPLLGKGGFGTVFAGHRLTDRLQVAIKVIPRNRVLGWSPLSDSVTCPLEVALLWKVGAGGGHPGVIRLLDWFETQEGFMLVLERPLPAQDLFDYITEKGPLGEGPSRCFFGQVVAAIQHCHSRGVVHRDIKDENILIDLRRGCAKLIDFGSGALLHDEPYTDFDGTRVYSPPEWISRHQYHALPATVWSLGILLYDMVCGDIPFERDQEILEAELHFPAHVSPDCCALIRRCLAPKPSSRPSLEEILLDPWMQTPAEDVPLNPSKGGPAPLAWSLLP

ALK = biological target: T26, ALK (Homo sapiens, UniProt Q9UM73); experiment: DiscoveRx KinomeScan binding
T26 construct: purchased DiscoveRx (KINOMEscan scanEDGE panel)

RIOK2 = biological target: T27, RIOK2 (Homo sapiens, UniProt Q9BVS4); experiment: DiscoveRx KinomeScan binding
T27 construct: purchased DiscoveRx scanEDGE panel

MAPKAPK2 = biological target: T28, MAPKAPK2 (Homo sapiens, UniProt P49137); experiment: DiscoveRx KinomeScan binding
T28 construct: purchased DiscoveRx scanEDGE panel (KinomeScan)
T28 sequence (P49137 whole entry): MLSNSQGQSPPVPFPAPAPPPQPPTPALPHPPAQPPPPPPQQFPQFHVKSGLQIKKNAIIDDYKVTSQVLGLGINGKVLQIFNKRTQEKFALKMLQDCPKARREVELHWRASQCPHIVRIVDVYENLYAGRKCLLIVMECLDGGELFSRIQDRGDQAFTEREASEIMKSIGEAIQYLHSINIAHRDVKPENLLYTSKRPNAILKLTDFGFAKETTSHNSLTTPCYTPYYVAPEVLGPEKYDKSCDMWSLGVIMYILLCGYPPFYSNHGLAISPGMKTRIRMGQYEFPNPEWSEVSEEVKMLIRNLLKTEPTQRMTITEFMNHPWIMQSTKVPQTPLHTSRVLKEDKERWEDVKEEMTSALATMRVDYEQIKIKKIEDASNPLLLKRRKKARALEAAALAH

PIM1 = biological target: T29, PIM1 (Homo sapiens, UniProt P11309); experiment: DiscoveRx KinomeScan binding
T29 construct: purchased DiscoveRx scanEDGE panel

CDK3 = biological target: T30, CDK3 (Homo sapiens, UniProt Q00526); experiment: DiscoveRx KinomeScan binding
T30 construct: purchased DiscoveRx (KINOMEscan scanEDGE panel)

PIK3CG = biological target: T31, PIK3CG (Homo sapiens, UniProt P48736); experiment: DiscoveRx KinomeScan binding
T31 construct: purchased DiscoveRx scanEDGE panel

BRAF(V600E) = biological target: T32, BRAF(V600E) (Homo sapiens, UniProt P15056, V600E); experiment: DiscoveRx KinomeScan binding
T32 construct: purchased DiscoveRx (KINOMEscan scanEDGE panel)

ULK2 = biological target: T33, ULK2 (Homo sapiens, UniProt Q8IYT8); experiment: DiscoveRx KinomeScan binding
T33 construct: purchased DiscoveRx scanEDGE panel

**Q.** `COc1ccc(NC(=O)Nc2ccc3c(c2)C(=O)N([C@@H](C)CO)C[C@H](C)[C@H](CN(C)Cc2ccc4c(c2)OCO4)O3)cc1` [BRD-7880] was tested. Which “Percent Control” value (PIK3CA) did it give?
**A.** Its value is 74%.

**Q.** And the “cell lines with AUC<0.5 (selectivity)” value (102 barcoded cell lines; 8 doses 0.25-32 μM)?
**A.** Its value is 12 of 102.

**Q.** What about the EC50 (102 barcoded cell lines) of the same compound?
**A.** The EC50 was about 1000 nM.

**Q.** What about the “Percent Control” value (ABL1---nonphosphorylated) of the same compound?
**A.** The value was 100%.

**Q.** And the “Percent Control” value (BMPR2)?
**A.** Its value is 100%.

**Q.** And the “Percent Control” value (p38---beta)?
**A.** Its value is 87%.

**Q.** What about the “Percent Control” value (SRPK3) of the same compound?
**A.** The value was 100%.

**Q.** What about the “Percent Control” value (IGF1R) of the same compound?
**A.** The value was 88%.

**Q.** What about the “Percent Control” value (IKK---alpha) of the same compound?
**A.** Its value is 58%.

**Q.** What about the “Percent Control” value (AKT2) of the same compound?
**A.** The value was 80%.

**Q.** What about the “Percent Control” value (RET) of the same compound?
**A.** The value was 100%.

**Q.** What about the “Percent Control” value (AKT1) of the same compound?
**A.** Its value is 87%.

**Q.** And the “Percent Control” value (KIT(V559D,T670I))?
**A.** Its value is 100%.

**Q.** What about the “Percent Control” value (SNARK) of the same compound?
**A.** The value was 72%.

**Q.** And the “Percent Control” value (YANK3)?
**A.** The value was 91%.

**Q.** What about the “Percent Control” value (MEK2) of the same compound?
**A.** The value was 73%.

**Q.** What about the “Percent Control” value (LKB1) of the same compound?
**A.** The value was 39%.

**Q.** And the “Percent Control” value (ADCK3)?
**A.** The value was 84%.

**Q.** And the “Percent Control” value (JNK3)?
**A.** Its value is 70%.

**Q.** What about the “Percent Control” value (p38---alpha) of the same compound?
**A.** The value was 93%.

**Q.** And the “Percent Control” value (BRAF)?
**A.** Its value is 70%.

**Q.** And the “Percent Control” value (EGFR)?
**A.** Its value is 66%.

**Q.** What about the “Percent Control” value (PLK4) of the same compound?
**A.** The value was 61%.

**Q.** What about the “phosphorylation of serine 10 on histone H3” value (HCT-116 cells) of the same compound?
**A.** The value was “decrease phosphorylation of serine 10 on histone H3”.

**Q.** What about the “Percent Control” value (JNK1) of the same compound?
**A.** The value was 91%.

**Q.** What about the “Percent Control” value (IKK---beta) of the same compound?
**A.** The value was 68%.

**Q.** And the “Percent Control” value (PIK3C2B)?
**A.** The value was 96%.

**Q.** What about the “Percent Control” value (PIM2) of the same compound?
**A.** The value was 85%.

**Q.** What about the “Percent Control” value (ALK) of the same compound?
**A.** The value was 100%.

**Q.** What about the “Percent Control” value (RIOK2) of the same compound?
**A.** Its value is 38%.

**Q.** What about the “Percent Control” value (MAPKAPK2) of the same compound?
**A.** Its value is 80%.

**Q.** And the “Percent Control” value (PIM1)?
**A.** The value was 87%.

**Q.** And the “Percent Control” value (CDK3)?
**A.** The value was 76%.

**Q.** What about the “Percent Control” value (PIK3CG) of the same compound?
**A.** The value was 100%.

**Q.** What about the “Percent Control” value (BRAF(V600E)) of the same compound?
**A.** The value was 65%.

**Q.** And the “Percent Control” value (ULK2)?
**A.** Its value is 100%.
